# Assay results published in patent US20220380763A1, “NUCLEIC ACID DELIVERY ENHANCER” (NATIONAL UNIVERSITY CORPORATION KOCHI UNIVERSITY, priority 2019, published 2022).
# Where two headings read alike, the source gives them in different places. Numbered stars: 1 amine (or outer) side, 2 acyl side, 3 side chain; on linkers, the order of the positions; unused ones are H or OH. Square brackets hold non-standard residues; d marks the D form. Peptide text beside a SMILES is read from it. * marks the point of attachment. Pteroyl = Nc1nc2ncc(CNc3ccc(C(=O)*)cc3)nc2c(=O)[nH]1; γGlu = O=C(O)[C@H](CCC(=O)[*:2])N[*:1]; Dab = NCC[C@H](N)C(=O)O
# Tests used:
# SNORA18 = SNORA18 siRNA (SEQ ID NOs: 5 and 6) in combination; Dab8 1 eq, Fol-Dab8A 3 eq, Fol-Dab8B 1 eq; S2-013 cells, 48 hours
# Method: (§1) Scrambled control siRNA (SEQ ID NOs: 3 and 4), SNORA18 siRNA (SEQ ID NOs: 5 and 6), NUP85 siRNA (SEQ ID NOs: 7 and 8), WASF2 siRNA (SEQ ID NOs: 9 and 10), and SNORA22 siRNA (SEQ ID NOs: 11 and 12), to which a cationic oligopeptide or a folic acid-cationic peptide was added (a complex of Dab8 with siRNA in 1 equivalent, a complex of Fol-Dab8A with siRNA in 3 equivalents, and a complex of Fol-Dab8B with siRNA in 1 equivalent), were each added to the culture solution the S2-013 cells in a 6-well plate (Thermo Fisher Scientific Inc.) (1.0×10^5 cells/well), and the cells were recovered after 48 hours.
# (§2) Semi-quantitative RT-PCR was performed using RNA from the recovered cells to confirm the knockdown effects of SNORA18, NUP85, WASF2, and SNORA22 in the cells.
# (§3) Specifically, the total RNA obtained from the S2-013 cells was reverse-transcribed using StrataScript reverse transcriptase (Agilent) and random primers. Appropriate dilutions of each single-stranded cDNA were prepared for subsequent PCR amplification. GAPDH mRNA was used as an internal quantitative control.
# (§4) PCR reactions were performed on a TaKaRa PCR Thermal Cycler Dice Gradient with initial denaturation at 94° C. for 2 minutes, followed by 94° C. for 30 seconds, 58° C. for 30 seconds, and 72° C. for 1 minute for 21 cycles (for GAPDH) or 25 cycles (for SNORA18, NUP85, WASF2, and SNORA22). Scanning and densitometric analysis for band intensity measurements were performed using the Quantity One analysis system (Bio-Rad).
# WASF2 = WASF2 siRNA (SEQ ID NOs: 9 and 10) in combination; Dab8 1 eq, Fol-Dab8A 3 eq, Fol-Dab8B 1 eq; S2-013 cells, 48 hours
# Method: as §1, §2, §3, §4
# SNORA22 = SNORA22 siRNA (SEQ ID NOs: 11 and 12) in combination; Dab8 1 eq, Fol-Dab8A 3 eq, Fol-Dab8B 1 eq; S2-013 cells, 48 hours
# Method: as §1, §2, §3, §4
# NUP85 = NUP85 siRNA (SEQ ID NOs: 7 and 8) in combination; Dab8 1 eq, Fol-Dab8A 3 eq, Fol-Dab8B 1 eq; S2-013 cells, 48 hours
# Method: as §1, §2, §3, §4
# [1] = tested on: S2-013 pancreatic cancer cells; conditions: for incorporation efficiency of siRNA: among 1 to 3 equivalents; for incorporation efficiency of siRNA compared with Dab8: best equivalent versus Dab8 of 1 to 3 equivalents
# Method: Since it is difficult to distinguish between intracellularly incorporated labels and non-incorporated labels by flow cytometry, the uptake of siRNA into pancreatic cancer cells was observed using a confocal microscope.
# The pancreatic cancer cell line 52-013 (Cell Resource Center for Biomedical Research, Institute of Development, Aging and Cancer, Tohoku University, ID: TKG 0709) was seeded in a 4-well chamber slide (Thermo Fisher Scientific Inc.) at a cell density of 2×10^4 cells/well, and scrambled control siRNA (SEQ ID NOs: 3 and 4) labeled with Alexa647 (Thermo Fisher Scientific Inc.), and Dab8, Fol-Dab8A, or Fol-Dab8B in 1 to 3 equivalents to the siRNA were added and then cultured for 48 hours. The concentration of siRNA used was 8.28 μg/mL in 25 μL, and Dab8, Fol-Dab8A, and Fol-Dab8B were diluted 25-fold from the stock solution (Dab8: 119.3 μg/mL, Fol-Dab8A and Fol-Dab8B: 141.2 μg/mL) and used. The amounts corresponding to 1, 2, and 3 equivalents relative to siRNA are 3.9 μL, 7.8 μL, and 11.7 μL, respectively.
# The next day, the cells were fixed with 4% paraformaldehyde, sealed with a DAPI-containing encapsulant, and then observed with an all-in-one fluorescence microscope (BZ-X800, Keyence Corporation).
# To quantify the uptake, the hybrid cell count function of the Keyence analysis software BZ-X800 Analyzer was used to count cells into which siRNA was taken up in the presence of Dab8, Fol-Dab8A, and Fol-Dab8B. Determination was made by measuring cells with dark staining of at least ⅓ of the cell nuclei and cells with dark clumps in the periphery of the cell nuclei.
# S2-013 cells = assay: Matrigel invasion assay; format: cell-based, human; conditions: versus scrambled control siRNA and siRNA alone
# Method: Each of the scrambled control siRNA, SNORA18 siRNA, NUP85 siRNA, WASF2 siRNA, and SNORA22 siRNA (all used in Example 5) with the folic acid-cationic oligopeptide complex added was added to the culture solution of S2-013 cells, and Matrigel invasion assay was performed after 48 hours.
# 4.0×10^4 cells were suspended in a serum-free medium and seeded in the upper chamber of a Matrigel Invasion Chamber (24-well plate, pore size: 8 μm, manufactured by Becton, Dickinson, and Company). A solvent containing 5% fetal bovine serum was added to the lower chamber. After the cells were incubated in the upper chamber for 20 hours, three independent areas were observed under a microscope, and the cells invading the lower chamber were counted. The same experiment was repeated three times, and the cell invasion ability of 52-013 cells into which each siRNA was taken up was compared.
# The “*” denotes a significant difference at P<0.05 as compared to the control in the t-test.
# Each of the scrambled control siRNA (SEQ ID NOs: 3 and 4), SNORA18 siRNA (SEQ ID NOs: 21 and 22), NUP85 siRNA (SEQ ID NOs: 23 and 24), WASF2 siRNA (SEQ ID NOs: 25 and 26), and SNORA22 siRNA (SEQ ID NOs: 27 and 28) was added with 2 equivalents of Dab8, Fol-Dab8A, or Fol-Dab8B to the culture solution of pancreatic cancer cell line S2-013 in culture. As a control, each of the control siRNA, SNORA18 siRNA, NUP85 siRNA, WASF2 siRNA, and SNORA22 siRNA was added alone to the culture solution of the S2-013 cells.
# After 48 hours of culture, the Matrigel invasion assay was performed. In the Matrigel invasion assay, the number of cells that have migrated from the upper chamber to the lower chamber is shown. The “*” denotes a significant difference at P<0.05 as compared to the control in the t-test.
# [2] = chemically-modified NUP85 siRNA (SEQ ID NOs: 23 and 24) with 2 equivalents of peptide
# [3] = chemically-modified SNORA18 siRNA (SEQ ID NOs: 21 and 22) with 2 equivalents of peptide
# [4] = chemically-modified SNORA22 siRNA (SEQ ID NOs: 27 and 28) with 2 equivalents of peptide
# [5] = chemically-modified WASF2 siRNA (SEQ ID NOs: 25 and 26) with 2 equivalents of peptide
SMILES,knockdown effect on SNORA18 (SNORA18),knockdown effect on WASF2 (WASF2),knockdown effect on SNORA22 (SNORA22),knockdown effect on NUP85 (NUP85),incorporation efficiency of siRNA ([1]; 3 equivalents),incorporation efficiency of siRNA compared with Dab8 [1],invasion of S2-013 cells (S2-013 cells; [2]),invasion of S2-013 cells (S2-013 cells; [3]),invasion of S2-013 cells (S2-013 cells; [4]),invasion of S2-013 cells (S2-013 cells; [5]),incorporation efficiency of siRNA ([1]; 1 equivalent)
NCC[C@H](NC(=O)[C@H](CCN)NC(=O)[C@H](CCN)NC(=O)[C@H](CCN)NC(=O)[C@H](CCN)NC(=O)[C@H](CCN)NC(=O)[C@H](CCN)NC(=O)[C@H](CCN)NC(=O)CNC(=O)CNC(=O)CNC(=O)CC[C@H](NC(=O)c1ccc(NCc2cnc3nc(N)[nH]c(=O)c3n2)cc1)C(=O)O)C(N)=O [Fol-Dab8A] ({Pteroyl-γGlu}-GGG[Dab][Dab][Dab][Dab][Dab][Dab][Dab][Dab]-NH2),remarkable knockdown effects,remarkable knockdown effects,remarkable knockdown effects,remarkable knockdown effects,highest incorporation efficiency,higher than Dab8,significantly suppressed,significantly suppressed,significantly suppressed,significantly suppressed,–
NCC[C@H](NC(=O)[C@H](CCN)NC(=O)[C@H](CCN)NC(=O)[C@H](CCN)NC(=O)[C@H](CCN)NC(=O)[C@H](CCN)NC(=O)[C@H](CCN)NC(=O)[C@H](CCN)NC(=O)CNC(=O)CNC(=O)CNC(=O)[C@H](CCC(=O)O)NC(=O)c1ccc(NCc2cnc3nc(N)[nH]c(=O)c3n2)cc1)C(N)=O [Fol-Dab8B] (Pteroyl-EGGG[Dab][Dab][Dab][Dab][Dab][Dab][Dab][Dab]-NH2),remarkable knockdown effects,remarkable knockdown effects,remarkable knockdown effects,remarkable knockdown effects,–,higher than Dab8,significantly suppressed,significantly suppressed,significantly suppressed,significantly suppressed,highest incorporation efficiency
